Consider three molecules from patent US12503453B2, “USP7 inhibition” (Dana-Farber Cancer Institute, Inc., priority 2018, dated 2025).

Experiment [1] has as its system Ewing sarcoma cell lines, TP53 WT and mutant. Put plainly: Cell proliferation (CellTiter-Glo), panel of Ewing sarcoma cell lines. Type of experiment: cell-based. Conditions: same set of cell lines. The method, then:
Cells were plated in 384-well culture-treated plates and allowed to settle overnight. After drug treatment and appropriate incubation time, cell viability was assessed using the CellTiter-Glo Luminescent Cell Viability Assay (Promega). Luminescence was read on a Fluostar Omega Reader (BMG Labtech).

Experiment [2] has the same test system. Conditions: recently reported study; cited from earlier work.
A further experiment addresses full length USP7 (Homo sapiens (Human), UniProt Q93009). Put plainly: Ub-AMC kinetic assay (ki and kinact). Type of experiment: biochemical. Conditions: pre-incubation 5 min-3 hours; read-out: inhibition constant (Ki). On the procedure: Full length USP7 was tested for its activity in Ubiquitin-AMC assay in presence or absence of inhibitors. USP7 (5 nM) was pre-incubated for 6 hours at room temperature with different concentrations of inhibitors or DMSO as a control in 50 mM HEPES pH 7.5, 0.5 mM EDTA, 11 μM ovalbumin, and 5 mM DTT. Ubiquitin-AMC (Boston Biochem) was then added to a final concentration of 500 nM. The initial rate of the reaction was measured by collecting fluorescence data at one minute intervals over 30-minute period using a Clariostar fluorescence plate reader at excitation and emission wavelength of 345 and 445 nm respectively. The calculated initial rate values were plotted against inhibitor concentrations to determine IC50s. All the experimental data were plotted using Prism GraphPad. All assays for each compound were performed at least twice for each compound.
To determine kobs, the time course curves were fit to the equation y=ymax(1−exp(−kobs·x)). The kobs values were then plotted against the inhibitor concentrations and fit to the equation y=kinact/(1+(ki/x)) to obtain the values for ki and kinact.

Experiment [3] relates to MCF7 cells. Put plainly: Cell cycle analysis by propidium iodide staining. Type of experiment: cell-based. Conditions: 1 μM, 24 hours. The method, then: For propidium iodide (PI) staining, treated cells (˜1 million per condition) were washed with cold PBS, then fixed in 80% ethanol overnight at −20° C. After fixing, cells were pelleted, washed with PBS, and reconstituted in 500 μL FxCycle PI/RNAse A staining solution (Thermo Fisher). Cells were stored overnight at 4° C. and analyzed using a BD Fortessa flow cytometer.

In experiment [4] the test system is MCF7 cells. Put plainly: Transcriptome profiling, 3' Digital Gene Expression RNA-seq. Type of experiment: cell-based. Conditions: 24 hours, low or high doses. The source says: Overall, transcripts were detected for 7000-10,000 genes (7276 genes detected across all conditions).
The same report had also identified a set of dimerization partner, Retinoblastoma-like, E2F and multi-vulval class B (DREAM) complex target genes by combining p53 repression data (generated in part with Nutlin-3A-treated MCF7 cells) with cell cycle expression and DREAM component binding.

In experiment [5] the test system is MDM2-p53 signaling axis in MCF7 cells. Put plainly: Whole cell lysate Western blots of MCF7 cells (MDM2-p53 signaling axis). Type of experiment: cell-based. Conditions: wild-type TP53.

Structures are written as SMILES.

Chain of full length USP7 (Q93009 whole entry): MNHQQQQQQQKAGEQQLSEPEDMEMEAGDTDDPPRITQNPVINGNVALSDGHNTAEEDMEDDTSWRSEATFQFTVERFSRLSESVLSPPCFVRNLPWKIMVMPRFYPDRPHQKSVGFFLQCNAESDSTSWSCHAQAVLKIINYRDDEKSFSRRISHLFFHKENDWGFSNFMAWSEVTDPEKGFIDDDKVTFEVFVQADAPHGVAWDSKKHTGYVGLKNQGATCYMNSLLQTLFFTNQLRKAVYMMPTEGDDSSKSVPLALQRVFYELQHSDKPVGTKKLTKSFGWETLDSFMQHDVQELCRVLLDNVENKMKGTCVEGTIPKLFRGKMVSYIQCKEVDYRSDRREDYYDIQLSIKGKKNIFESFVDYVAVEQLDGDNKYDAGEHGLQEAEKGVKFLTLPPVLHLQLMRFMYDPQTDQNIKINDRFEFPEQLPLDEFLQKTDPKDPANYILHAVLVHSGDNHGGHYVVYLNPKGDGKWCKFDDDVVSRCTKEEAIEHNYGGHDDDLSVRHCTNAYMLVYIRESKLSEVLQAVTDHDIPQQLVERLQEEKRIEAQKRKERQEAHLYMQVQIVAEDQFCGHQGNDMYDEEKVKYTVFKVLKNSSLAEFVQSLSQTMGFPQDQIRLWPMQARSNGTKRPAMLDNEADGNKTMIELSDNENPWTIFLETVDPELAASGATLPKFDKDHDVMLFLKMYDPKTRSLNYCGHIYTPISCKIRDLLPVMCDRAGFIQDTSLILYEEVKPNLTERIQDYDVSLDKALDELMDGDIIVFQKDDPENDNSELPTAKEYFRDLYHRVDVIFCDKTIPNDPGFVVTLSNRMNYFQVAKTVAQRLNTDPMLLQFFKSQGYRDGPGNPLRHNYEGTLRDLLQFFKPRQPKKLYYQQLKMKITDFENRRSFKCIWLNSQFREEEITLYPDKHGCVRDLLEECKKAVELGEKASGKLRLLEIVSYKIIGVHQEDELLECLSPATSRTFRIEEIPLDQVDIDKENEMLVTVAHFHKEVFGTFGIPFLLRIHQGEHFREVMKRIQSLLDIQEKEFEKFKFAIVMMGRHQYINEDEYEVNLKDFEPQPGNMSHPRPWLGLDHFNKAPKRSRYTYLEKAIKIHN

In the case of `CC(=O)c1cc([N+](=O)[O-])c(Sc2cccc(Cl)c2Cl)s1` [P5091], in experiment [1], the “specificity for TP53-WT expressing cells” value was “little to no specificity for TP53-WT expressing cells”. In experiment [2], the “activity against WT and TP53-KO Ewing Sarcoma cells” value was “equipotent activity against WT and TP53-KO Ewing Sarcoma cells”.
Regarding `CN1CCN(CCC(=O)Nc2ccc3c(=O)n(CC4(O)CCN(C(=O)CCCCNC(=O)c5ccc6c(Cl)c7c(nc6c5)CCCC7)CC4)cnc3c2)CC1` [compound 1, 9-chloro-N-(5-(4-hydroxy-4-((7-(3-(4-methylpiperazin-1-yl)propanamido)-4-oxoquinazolin-3(4H)-yl)methyl)piperidin-1-yl)-5-oxopentyl)-5,6,7,8-tetrahydroacridine-3-carboxamide], the Ki on full length USP7 amounted to 2.8 ± 1.8 nM.
As for `CN1CCN(CCC(=O)Nc2ccc3c(=O)n(CC4(O)CCN(C(=O)[C@H](CCCNC(=O)c5ccc6c(Cl)c7c(nc6c5)CCCC7)Cc5ccccc5)CC4)cnc3c2)CC1` [compound 7, (R)-N-(4-benzyl-5-(4-hydroxy-4-((7-(3-(4-methylpiperazin-1-yl)propanamido)-4-oxoquinazolin-3(4H)-yl)methyl)piperidin-1-yl)-5-oxopentyl)-9-chloro-5,6,7,8-tetrahydroacridine-3-carboxamide], the cell cycle effect entry in the experiment with MCF7 cells [3] is recorded as “did not exert any of the same effects”. Moreover, the transcriptional profile entry with MCF7 cells [4] is given as “highly correlated with the vehicle (DMSO)-treated control cells”. The MDM2 protein level entry in experiment [5] is reported as “did not exert any of the same effects”.
